Data as given in ChEMBL document CHEMBL1201862, “PubChem BioAssay data set” (2004).
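96-well plates; 48 h exposure; 5 concentrations. Endpoints by linear interpolation between flanking doses. Not reached: highest tested concentration assigned. The concentration for 50% growth inhibition is given as GI50.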 Activity calls are given as the source filed them. Cut-off read from the data, not from the text of the source: active = GI50 up to about 1.1 µM and inactive = higher.

Legend:
Experiment in all cases: growth of human tumour cells (NCI), 48 h
OVCAR-3 = system: OVCAR-3
MOLT-4 = system: MOLT-4
RXF 393 = system: RXF 393
SK-OV-3 = system: SK-OV-3
SK-MEL-28 = system: SK-MEL-28
A498 = system: A498
LOX IMVI = system: LOX IMVI
A549 = system: A549
UACC-257 = system: UACC-257
Malme-3M = system: Malme-3M
TK-10 = system: TK-10
NCI-H522 = system: NCI-H522
EKVX = system: EKVX
SW-620 = system: SW-620
OVCAR-5 = system: OVCAR-5
NCI-H23 = system: NCI-H23
HOP-92 = system: HOP-92

Measured: GI50

CC(Oc1ccc(OCC2CCCCC2)cc1)C(=O)NCc1ccco1 (centres undefined)
inactive: OVCAR-3 40.6 µM | MOLT-4 34.9 µM | RXF 393 22.6 µM | SK-OV-3 98.9 µM | SK-MEL-28 43.6 µM | A498 24.7 µM | LOX IMVI 20.7 µM | A549 34.9 µM | UACC-257 23.6 µM | Malme-3M 27 µM | TK-10 84.7 µM | NCI-H522 18.4 µM

CCO/C([O-])=C(\C(=O)c1ccccc1)[n+]1c(C)sc2ccccc21
inactive: OVCAR-3 > 100 µM | MOLT-4 > 100 µM | RXF 393 > 100 µM | EKVX > 100 µM | SK-OV-3 > 100 µM | SW-620 > 100 µM | SK-MEL-28 > 100 µM | OVCAR-5 > 100 µM | A498 > 100 µM | LOX IMVI 49.2 µM | A549 45.5 µM | UACC-257 13.5 µM | NCI-H23 61.8 µM | Malme-3M 96.6 µM | TK-10 > 100 µM | NCI-H522 81.3 µM

CC(=O)OC1C/C(C)=C/[C@H](O)CC(C)/C=C/[C@@]2(C)CCC(C(C)(C)O)C12 (some centres undefined)
inactive: OVCAR-3 > 100 µM | MOLT-4 > 100 µM | RXF 393 > 100 µM | EKVX > 100 µM | SK-OV-3 > 100 µM | SW-620 > 100 µM | HOP-92 > 100 µM | SK-MEL-28 > 100 µM | OVCAR-5 > 100 µM | A498 > 100 µM | LOX IMVI > 100 µM | A549 > 100 µM | UACC-257 > 100 µM | NCI-H23 > 100 µM | Malme-3M > 100 µM | TK-10 > 100 µM

CN1C(=O)N(C)C(N2CCCC2)c2c1nc1ccccn1c2=O (centres undefined)
inactive: OVCAR-3 77.3 µM | MOLT-4 > 100 µM | RXF 393 49 µM | EKVX 43.3 µM | SK-OV-3 78.5 µM | SW-620 60.5 µM | HOP-92 42.7 µM | SK-MEL-28 > 100 µM | A498 34.8 µM | LOX IMVI 36.5 µM | A549 > 100 µM | UACC-257 50.7 µM | NCI-H23 > 100 µM | Malme-3M > 100 µM | TK-10 > 100 µM | NCI-H522 61 µM

FC(F)(F)C12C34C=CC5(CCC6(C=CC1(CC3)O6)C52C(F)(F)F)O4 (centres undefined)
inactive: OVCAR-3 > 100 µM | MOLT-4 > 100 µM | RXF 393 93.5 µM | EKVX > 100 µM | SK-OV-3 > 100 µM | SW-620 > 100 µM | HOP-92 > 100 µM | SK-MEL-28 > 100 µM | OVCAR-5 > 100 µM | A498 > 100 µM | LOX IMVI > 100 µM | A549 > 100 µM | UACC-257 > 100 µM | NCI-H23 > 100 µM | Malme-3M > 100 µM | TK-10 > 100 µM | NCI-H522 > 100 µM

COc1cc2ccc3c4cc(OC)c(OCc5ccccc5)cc4cnc3c2cc1OC
inactive: OVCAR-3 > 100 µM | MOLT-4 70.6 µM | EKVX > 100 µM | SK-OV-3 > 100 µM | SW-620 > 100 µM | SK-MEL-28 > 100 µM | OVCAR-5 > 100 µM | A498 > 100 µM | A549 > 100 µM | UACC-257 > 100 µM | NCI-H23 > 100 µM | Malme-3M > 100 µM | TK-10 > 100 µM | NCI-H522 > 100 µM

CCc1cccc(CC)c1NC(=O)C1=CNC(C)=C(C(=O)Nc2c(CC)cccc2CC)C1c1ccc(O)c(OC)c1 (centres undefined)
inactive: OVCAR-3 19 µM | MOLT-4 22.3 µM | RXF 393 25.3 µM | EKVX 35.2 µM | SK-OV-3 > 100 µM | SW-620 30.3 µM | HOP-92 42.4 µM | SK-MEL-28 33.3 µM | OVCAR-5 54.8 µM | A498 24.7 µM | LOX IMVI 31.5 µM | A549 31.6 µM | UACC-257 28.2 µM | NCI-H23 36.6 µM | Malme-3M 28.1 µM | TK-10 47.6 µM | NCI-H522 26.4 µM

Cn1c(N)[n+](C(=O)OCc2ccccc2)c(=O)c2c1ncn2C(=O)OCc1ccccc1
inactive: OVCAR-3 > 100 µM | MOLT-4 > 100 µM | EKVX 89.5 µM | SK-OV-3 28.9 µM | SW-620 > 100 µM | SK-MEL-28 > 100 µM | OVCAR-5 > 100 µM | A498 30.8 µM | LOX IMVI > 100 µM | A549 73.1 µM | UACC-257 > 100 µM | NCI-H23 46.2 µM | Malme-3M > 100 µM | TK-10 46.7 µM | NCI-H522 30.9 µM

Cn1c(O)c(C(=O)NC2CCCCC2)c(=O)n(C)c1=S
inactive: OVCAR-3 4.93 µM | MOLT-4 3.56 µM | SK-OV-3 5.64 µM | SW-620 5.79 µM | HOP-92 3.59 µM | SK-MEL-28 4.61 µM | OVCAR-5 14.5 µM | A498 4.44 µM | LOX IMVI 8.81 µM | A549 3.3 µM | UACC-257 6.27 µM | NCI-H23 4.4 µM | TK-10 6.32 µM | NCI-H522 3.58 µM

Nc1ccc(-c2cc(C(=O)Nc3nccs3)nc(S)n2)cc1
inactive: OVCAR-3 > 100 µM | MOLT-4 > 100 µM | RXF 393 > 100 µM | EKVX > 100 µM | SK-OV-3 > 100 µM | SW-620 > 100 µM | HOP-92 > 100 µM | SK-MEL-28 > 100 µM | OVCAR-5 > 100 µM | A498 > 100 µM | LOX IMVI > 100 µM | A549 > 100 µM | UACC-257 > 100 µM | NCI-H23 > 100 µM | Malme-3M > 100 µM | TK-10 > 100 µM | NCI-H522 > 100 µM

CCNc1nnc(CSc2nc(-c3ccccc3)c(-c3ccccc3)[nH]2)s1
inactive: OVCAR-3 20.6 µM | MOLT-4 20.5 µM | EKVX 14.3 µM | SK-OV-3 20.1 µM | SW-620 20.2 µM | HOP-92 15.8 µM | SK-MEL-28 14.6 µM | OVCAR-5 21.4 µM | LOX IMVI 16.5 µM | A549 28.7 µM | UACC-257 17.3 µM | NCI-H23 26.1 µM | Malme-3M 21.5 µM | TK-10 18.5 µM | NCI-H522 19.9 µM

COC(=O)C(=O)Cc1nc2ccccc2s1
inactive: OVCAR-3 > 100 µM | MOLT-4 > 100 µM | RXF 393 > 100 µM | EKVX > 100 µM | SK-OV-3 > 100 µM | SW-620 > 100 µM | HOP-92 > 100 µM | SK-MEL-28 > 100 µM | OVCAR-5 > 100 µM | A498 > 100 µM | LOX IMVI > 100 µM | A549 > 100 µM | UACC-257 > 100 µM | NCI-H23 > 100 µM | Malme-3M > 100 µM | TK-10 > 100 µM | NCI-H522 > 100 µM

CCOC(=O)c1c(NNc2ccccc2)nc2ccccc2c1-c1ccccc1
inactive: OVCAR-3 21.1 µM | MOLT-4 12.8 µM | RXF 393 42 µM | EKVX 50.2 µM | SK-OV-3 65.5 µM | SW-620 50.4 µM | HOP-92 27.9 µM | SK-MEL-28 34 µM | OVCAR-5 56.1 µM | A498 > 100 µM | LOX IMVI 20.2 µM | A549 34.5 µM | UACC-257 29.7 µM | NCI-H23 19.5 µM | Malme-3M 29.1 µM | TK-10 80.4 µM | NCI-H522 30.1 µM

CC(CCCOC(c1ccccc1)(c1ccccc1)c1ccccc1)OC(=O)Nc1cc([N+](=O)[O-])cc([N+](=O)[O-])c1 (centres undefined)
inactive: OVCAR-3 33.3 µM | MOLT-4 28.8 µM | RXF 393 43.3 µM | EKVX 32 µM | SK-OV-3 14.8 µM | SW-620 33.5 µM | SK-MEL-28 28.2 µM | A498 22.8 µM | LOX IMVI 29.9 µM | A549 31.6 µM | UACC-257 24.3 µM | NCI-H23 29 µM | Malme-3M 27.6 µM | NCI-H522 23.7 µM

COCN1COCN/C1=N\C#N
inactive: OVCAR-3 > 100 µM | MOLT-4 > 100 µM | RXF 393 83.2 µM | EKVX > 100 µM | SK-OV-3 > 100 µM | SW-620 22.5 µM | HOP-92 > 100 µM | SK-MEL-28 > 100 µM | OVCAR-5 > 100 µM | A498 > 100 µM | A549 > 100 µM | UACC-257 > 100 µM | NCI-H23 > 100 µM | Malme-3M > 100 µM | TK-10 > 100 µM | NCI-H522 > 100 µM

Cc1ccc(S(=O)(=O)NC(C)C(=O)O)cc1 (centres undefined)
inactive: OVCAR-3 > 100 µM | MOLT-4 > 100 µM | RXF 393 > 100 µM | EKVX > 100 µM | SK-OV-3 > 100 µM | SW-620 > 100 µM | HOP-92 > 100 µM | SK-MEL-28 > 100 µM | OVCAR-5 > 100 µM | A498 > 100 µM | LOX IMVI > 100 µM | A549 > 100 µM | UACC-257 > 100 µM | NCI-H23 > 100 µM | Malme-3M > 100 µM | TK-10 > 100 µM | NCI-H522 > 100 µM

O=C1CC(c2c(-c3ccccc3)[nH]c3ccccc23)C(=O)N1 (centres undefined)
inactive: OVCAR-3 > 100 µM | MOLT-4 > 100 µM | RXF 393 > 100 µM | EKVX > 100 µM | SK-OV-3 > 100 µM | SW-620 > 100 µM | SK-MEL-28 > 100 µM | OVCAR-5 > 100 µM | A498 90.2 µM | A549 > 100 µM | UACC-257 > 100 µM | NCI-H23 > 100 µM | Malme-3M > 100 µM | TK-10 > 100 µM
